Measurements taken from patent US12622909B2, “Allosteric EGFR inhibitors and methods of use thereof” (Dana-Farber Cancer Institute, Inc., priority 2019, dated 2026).
Structures can show the parent of a compound that is named as a salt. Where two headings read alike, the source gives them in different places.

What was measured:
EGFR L858R/T790M = EGFR L858R/T790M (Homo sapiens, UniProt P00533, L858R/T790M); assay: HTRF-based EGFR biochemical assay (L858R/T790M); conditions: 100 μM ATP, enzyme 0.02 nM
Method in brief: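 Mutant EGFR preincubated 30 min with compound at room temperature, then reacted 20 min with 1 μM biotinylated tyrosine kinase peptide and 100 μM ATP in 50 mM HEPES pH 7.0, 5 mM MgCl2, 1 mM MnCl2, 0.01% BSA, 2 mM TCEP, 0.1 mM NaVO4. Phosphorylation read by HTRF.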

EGFR L858R = EGFR L858R (Homo sapiens, UniProt P00533, L858R); assay: HTRF-based EGFR biochemical assay (L858R); conditions: 100 μM ATP, enzyme 0.1 nM
Method in brief: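 Reaction started with 100 μM ATP (final) for 20 min, then quenched with EDTA. Phosphorylation detected by HTRF (Eu-cryptate anti-phosphotyrosine/Streptavidin-XL665, 665/620 nm).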

[1] = target: EGFR L858R/T790M mutant Ba/F3 cells (Homo sapiens, UniProt P00533, T790M/L858R, cells depend on it); assay: Ba/F3 cell proliferation (Cell Titer Glo); assay type: cell-based, murine; conditions: 72 hours
Method in brief: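 Ba/F3 cells retrovirally transduced with the EGFR construct and puromycin-selected (2 μg/ml), grown in RPMI 1640 with 10% FBS. Viability read by Cell Titer Glo luminescence (ATP content), triplicate points, experiments repeated at least three times. Curves fitted by non-linear sigmoidal dose-response regression.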

[2] = in combination with 1 μg/ml cetuximab, read-out: Cell IC50 BaF3 L858R/T790M compound + cetuximab
[3] = single agent, read-out: Cell IC50 EGFR BaF3 L858R/T790M

EGFR L858R, sequence (P00533 25-1210 L858R): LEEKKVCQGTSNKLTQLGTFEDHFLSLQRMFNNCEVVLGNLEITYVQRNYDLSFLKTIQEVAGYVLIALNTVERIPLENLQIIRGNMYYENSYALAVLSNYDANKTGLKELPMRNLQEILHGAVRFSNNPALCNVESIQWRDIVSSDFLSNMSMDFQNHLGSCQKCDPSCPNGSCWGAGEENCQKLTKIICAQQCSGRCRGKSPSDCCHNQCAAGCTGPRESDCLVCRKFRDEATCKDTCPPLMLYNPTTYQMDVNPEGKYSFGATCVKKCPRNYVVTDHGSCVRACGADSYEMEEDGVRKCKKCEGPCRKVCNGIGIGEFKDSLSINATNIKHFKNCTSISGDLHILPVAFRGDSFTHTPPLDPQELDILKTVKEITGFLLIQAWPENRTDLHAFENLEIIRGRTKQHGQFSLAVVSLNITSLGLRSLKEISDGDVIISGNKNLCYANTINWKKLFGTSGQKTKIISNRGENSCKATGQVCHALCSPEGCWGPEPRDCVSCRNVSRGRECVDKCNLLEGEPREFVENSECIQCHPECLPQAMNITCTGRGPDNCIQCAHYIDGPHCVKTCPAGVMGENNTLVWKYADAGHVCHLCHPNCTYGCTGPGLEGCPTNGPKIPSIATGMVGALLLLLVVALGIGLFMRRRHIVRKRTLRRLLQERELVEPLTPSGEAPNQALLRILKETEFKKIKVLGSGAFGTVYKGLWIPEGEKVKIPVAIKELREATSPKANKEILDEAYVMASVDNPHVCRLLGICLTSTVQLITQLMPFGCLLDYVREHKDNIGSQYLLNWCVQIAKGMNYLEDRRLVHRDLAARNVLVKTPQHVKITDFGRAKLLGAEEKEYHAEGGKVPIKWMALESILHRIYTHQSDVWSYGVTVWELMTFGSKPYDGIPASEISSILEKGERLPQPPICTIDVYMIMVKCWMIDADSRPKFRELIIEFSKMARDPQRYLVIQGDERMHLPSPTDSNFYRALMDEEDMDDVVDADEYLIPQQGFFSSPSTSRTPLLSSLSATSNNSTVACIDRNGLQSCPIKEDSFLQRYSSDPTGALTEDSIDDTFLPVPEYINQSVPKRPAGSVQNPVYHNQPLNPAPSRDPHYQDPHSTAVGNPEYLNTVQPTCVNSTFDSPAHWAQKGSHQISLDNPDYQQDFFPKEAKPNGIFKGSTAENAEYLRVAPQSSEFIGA
EGFR L858R/T790M, sequence (P00533 25-1210 T790M/L858R): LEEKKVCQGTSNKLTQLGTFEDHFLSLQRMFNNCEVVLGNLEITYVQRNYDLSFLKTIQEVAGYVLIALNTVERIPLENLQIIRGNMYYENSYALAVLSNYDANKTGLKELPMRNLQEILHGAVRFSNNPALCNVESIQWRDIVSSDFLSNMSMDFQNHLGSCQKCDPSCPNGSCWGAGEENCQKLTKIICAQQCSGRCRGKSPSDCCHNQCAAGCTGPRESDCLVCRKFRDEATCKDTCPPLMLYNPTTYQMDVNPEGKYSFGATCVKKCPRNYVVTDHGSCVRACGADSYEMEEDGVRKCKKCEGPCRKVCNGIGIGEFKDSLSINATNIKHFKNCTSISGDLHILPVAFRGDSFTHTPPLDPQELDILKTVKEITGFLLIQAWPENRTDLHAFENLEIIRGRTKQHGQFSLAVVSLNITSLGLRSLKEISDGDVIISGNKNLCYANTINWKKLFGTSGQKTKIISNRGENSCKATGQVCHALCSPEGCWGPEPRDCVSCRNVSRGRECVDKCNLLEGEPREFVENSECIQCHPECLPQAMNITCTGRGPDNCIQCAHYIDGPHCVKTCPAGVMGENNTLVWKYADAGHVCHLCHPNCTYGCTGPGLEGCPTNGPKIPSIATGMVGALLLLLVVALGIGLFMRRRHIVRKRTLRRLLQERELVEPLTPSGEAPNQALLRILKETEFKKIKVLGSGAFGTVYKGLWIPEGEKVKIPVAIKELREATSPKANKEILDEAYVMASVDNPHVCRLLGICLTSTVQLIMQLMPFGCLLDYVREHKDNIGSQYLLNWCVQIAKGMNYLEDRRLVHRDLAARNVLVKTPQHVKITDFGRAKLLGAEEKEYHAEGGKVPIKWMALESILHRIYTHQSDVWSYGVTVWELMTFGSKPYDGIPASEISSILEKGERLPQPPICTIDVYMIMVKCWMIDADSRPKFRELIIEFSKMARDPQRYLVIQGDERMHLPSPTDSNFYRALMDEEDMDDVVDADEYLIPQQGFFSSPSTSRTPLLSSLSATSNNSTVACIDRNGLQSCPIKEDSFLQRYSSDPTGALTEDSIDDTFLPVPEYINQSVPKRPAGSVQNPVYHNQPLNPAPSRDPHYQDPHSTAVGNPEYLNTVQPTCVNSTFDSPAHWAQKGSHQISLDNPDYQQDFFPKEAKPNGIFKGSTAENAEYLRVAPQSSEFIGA
EGFR L858R/T790M mutant Ba/F3 cells, sequence (P00533 whole entry T790M/L858R): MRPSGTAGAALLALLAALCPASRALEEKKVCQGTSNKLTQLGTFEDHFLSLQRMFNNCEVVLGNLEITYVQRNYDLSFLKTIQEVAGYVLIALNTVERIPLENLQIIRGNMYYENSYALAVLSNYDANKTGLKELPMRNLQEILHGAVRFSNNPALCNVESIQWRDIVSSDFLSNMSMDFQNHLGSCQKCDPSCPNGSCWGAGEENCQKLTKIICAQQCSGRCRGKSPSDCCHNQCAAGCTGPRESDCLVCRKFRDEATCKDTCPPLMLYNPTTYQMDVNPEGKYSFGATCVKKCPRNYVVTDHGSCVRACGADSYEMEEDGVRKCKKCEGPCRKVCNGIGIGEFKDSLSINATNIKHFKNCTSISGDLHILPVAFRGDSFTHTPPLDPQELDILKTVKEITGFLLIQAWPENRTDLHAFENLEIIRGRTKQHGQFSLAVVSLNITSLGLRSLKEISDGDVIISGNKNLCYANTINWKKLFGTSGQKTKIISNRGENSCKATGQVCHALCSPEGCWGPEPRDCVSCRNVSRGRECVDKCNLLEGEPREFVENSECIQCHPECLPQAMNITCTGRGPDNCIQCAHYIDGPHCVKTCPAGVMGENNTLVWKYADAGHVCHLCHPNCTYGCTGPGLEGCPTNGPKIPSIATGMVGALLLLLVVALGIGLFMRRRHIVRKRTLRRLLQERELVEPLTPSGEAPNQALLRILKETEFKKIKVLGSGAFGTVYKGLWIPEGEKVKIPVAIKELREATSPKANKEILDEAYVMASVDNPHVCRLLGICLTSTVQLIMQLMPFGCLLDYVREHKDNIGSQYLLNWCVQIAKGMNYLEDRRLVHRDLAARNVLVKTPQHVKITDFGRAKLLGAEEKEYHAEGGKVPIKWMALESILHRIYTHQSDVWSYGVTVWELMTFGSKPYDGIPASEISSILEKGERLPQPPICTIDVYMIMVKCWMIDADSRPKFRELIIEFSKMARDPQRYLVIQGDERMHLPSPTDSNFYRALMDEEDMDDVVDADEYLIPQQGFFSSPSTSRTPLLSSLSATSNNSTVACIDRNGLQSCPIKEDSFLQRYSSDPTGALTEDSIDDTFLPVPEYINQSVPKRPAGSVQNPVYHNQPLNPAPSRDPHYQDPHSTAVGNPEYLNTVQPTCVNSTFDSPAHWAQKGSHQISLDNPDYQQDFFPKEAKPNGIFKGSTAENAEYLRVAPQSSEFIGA

SMILES | IC50 (EGFR L858R/T790M) | IC50 (EGFR L858R) | GI50 [1, 2] | GI50 [1, 3]
CN1CCC(c2ccc(-c3ccc4ncn(C(C(=O)Nc5nccs5)c5cccc(F)c5)c(=O)c4c3F)cc2)CC1 (centres unmarked) [Compound 070, 2-(5-Fluoro-6-(4-(1-methylpiperidin-4-yl)phenyl)-4-oxoquinazolin-3-(4H)-yl)-2-(3-fluorophenyl)-N-(thiazol-2-yl)acetamide] | 0.2 nM | 1 nM | 5 nM | 550 nM
CN1CCN(c2ccc(-c3ccc4ncn(C(C(=O)Nc5nccs5)c5ccccc5)c(=O)c4c3F)cc2)CC1 (centres unmarked) [Compound 071, 2-(5-Fluoro-6-(4-(4-methyl-piperazin-1-yl)phenyl)-4-oxo-quinazolin-3(4H)-yl)-2-phenyl-N-(thiazol-2-yl)acetamide] | 0.7 nM | 5 nM | 20 nM | 2370 nM
CN1CCN(c2ccc(-c3ccc4ncn(C(C(=O)Nc5nccs5)c5ccccc5)c(=O)c4n3)cc2)CC1 (centres unmarked) [Compound 072, 2-(6-(4-(4-Methylpiperazin-1-yl)-phenyl)-4-oxopyrido[3,2-d]-pyrimidin-3(4H)-yl)-2-phenyl-N-(thiazol-2-yl)acetamide] | 1 nM | 12 nM | 55 nM | 1600 nM
CN1CCC(c2ccc(-c3ccc4ncn(C(C(=O)Nc5nccs5)c5ccccc5)c(=O)c4n3)cc2)CC1 (centres unmarked) [Compound 073, 2-(6-(4-(1-Methylpiperidin-4-yl)-phenyl)-4-oxopyrido[3,2-d]-pyrimidin-3(4H)-yl)-2-phenyl-N-(thiazol-2-yl)acetamide] | 0.6 nM | 7 nM | 15 nM | 1940 nM
CN1CCC(c2ccc(-c3ccc4ncn(C(C(=O)Nc5ccccn5)c5cccc(F)c5)c(=O)c4c3F)cc2)CC1 (centres unmarked) [Compound 074, 2-(5-Fluoro-6-(4-(1-methylpiperidin-4-yl)phenyl)-4-oxoquinazolin-3-(4H)-yl)-2-(3-fluorophenyl)-N-(pyridin-2-yl)acetamide] | 0.6 nM | 6 nM | 22 nM | 2350 nM
CN1CCC(c2ccc(-c3ccc4ncn(C(C(=O)Nc5nccs5)c5ccccc5F)c(=O)c4c3F)cc2)CC1 (centres unmarked) [Compound 075, 2-(5-Fluoro-6-(4-(1-methylpiperidin-4-yl)phenyl)-4-oxoquinazolin-3-(4H)-yl)-2-(2-fluorophenyl)-N-(thiazol-2-yl)acetamide] | 0.1 nM | 1 nM | 7 nM | 1030 nM
CN1CCN(c2ccc(-c3ccc4ncn(C(C(=O)Nc5nccs5)c5ccccc5F)c(=O)c4c3F)cc2)CC1 (centres unmarked) [Compound 076, 2-(5-Fluoro-6-(4-(4-methyl-piperazin-1-yl)phenyl)-4-oxo-quinazolin-3(4H)-yl)-2-(2-fluoro-phenyl)-N-(thiazol-2-yl)acetamide] | 0.7 nM | 8 nM | 44 nM | 3360 nM
COc1cccc(F)c1C(C(=O)Nc1nccs1)n1cnc2ccc(-c3ccc(N4CCN(C)CC4)cc3)cc2c1=O (centres unmarked) [Compound 077, 2-(2-Fluoro-6-methoxyphenyl)-2-(6-(4-(4-methylpiperazin-1-yl)phenyl)-4-exoquinazolin-3(4H)-yl)-N-(thiazol-2-yl)acetamide] | 17 nM | 35 nM | 2100 nM | 6460 nM
COc1cccc(F)c1C(C(=O)Nc1nccs1)n1cnc2ccc(-c3ccc(C4CCN(C)CC4)cc3)cc2c1=O (centres unmarked) [Compound 078] | 1 nM | 8 nM | 620 nM | 4200 nM
CN1CCC(c2ccc(-c3ccc4ncn(C(C(=O)Nc5ccccn5)c5cc(F)ccc5O)c(=O)c4c3)cc2)CC1 (centres unmarked) [Compound 082, 2-(5-Fluoro-2-hydroxyphenyl)-2-(6-(4-(1-methylpiperidin-4-yl)phenyl)-4-oxoquinazolin-3(4H)-yl)-N-(pyridin-2-yl)acetamide; hydrochloride] | 0.2 nM | 1 nM | 2 nM | 230 nM
CN1CCC(c2ccc(-c3ccc4ncn(C(C(=O)Nc5nccs5)c5cc(F)ccc5O)c(=O)c4c3F)cc2)CC1 (centres unmarked) [Compound 083, 2-(5-Fluoro-2-hydroxyphenyl)-2-(5-fluoro-6-(4-(1-methylpiperidin-4-yl)phenyl)-4-oxoquinazolin-3(4H)-yl)-N-(thiazol-2-yl)acetamide] | 0.1 nM | 0.2 nM | 9 nM | 40 nM
CN1CCC(c2ccc(-c3ccc4ncn(C(C(=O)Nc5nccs5)c5cc(F)ccc5O)c(=O)c4n3)cc2)CC1 (centres unmarked) [Compound 084, 2-(5-Fluoro-2-hydroxyphenyl)-2-(6-(4-(1-methylpiperidin-4-yl)phenyl)-4-oxopyrido[3,2-d]pyrimidin-3(4H)-yl)-N-(thiazol-2-yl)acetamide] | 0.1 nM | 0.4 nM | 48 nM | 860 nM
CN1CCN(c2ccc(-c3ccc4ncn(C(C(=O)Nc5nccs5)c5c(O)cccc5F)c(=O)c4c3)cc2)CC1 (centres unmarked) [Compound 085, 2-(2-Fluoro-6-hydroxyphenyl)-2-(6-(4-(4-methylpiperazin-1-yl)phenyl)-4-oxoquinazolin-3(4H)-yl)-N-(thiazol-2-yl)acetamide] | 3 nM | 6 nM | 66 nM | 5770 nM
CN1CCC(c2ccc(-c3ccc4ncn(C(C(=O)Nc5nccs5)c5c(O)cccc5F)c(=O)c4c3)cc2)CC1 (centres unmarked) [Compound 086, 2-(2-Fluoro-6-hydroxyphenyl)-2-(6-(4-(1-methylpiperidin-4-yl)phenyl)-4-oxoquinazolin-3(4H)-yl)-N-(thiazol-2-yl)acetamide] | 0.4 nM | 2 nM | 33 nM | 3160 nM
